# In ChEMBL document CHEMBL1201861, “Genomics of Drug Sensitity in Cancer screening data, Wellcome Trust Sanger Institute”:
# pIC50: −log10 of the molar value.
# What was measured:
# Assay in all cases: cells
# Calu-6 = assay type: functional, cell-based, Homo sapiens;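 further: growth of human Calu-6 cells, read out by a cell viability assay, IC50 marking inhibition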
# Description: SANGER: Inhibition of human Calu-6 cell growth in a cell viability assay.
# D-247MG = assay type: functional, cell-based, Homo sapiens; settings: Homo sapiens, D-247MG
# Description: SANGER: Inhibition of human D-247MG cell growth in a cell viability assay.
# D-263MG = assay type: functional, cell-based, Homo sapiens
# Description: SANGER: Inhibition of human D-263MG cell growth in a cell viability assay.
# DB = assay type: functional, cell-based, Homo sapiens
# Description: SANGER: Inhibition of human DB cell growth in a cell viability assay.
# DMS-79 = assay type: functional, cell-based, Homo sapiens;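 further: growth inhibition measured with a cell viability assay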
# Description: SANGER: Inhibition of human DMS-79 cell growth in a cell viability assay.
# DU-4475 = assay type: functional, cell-based, Homo sapiens
# Description: SANGER: Inhibition of human DU-4475 cell growth in a cell viability assay.
# HCC2218 = assay type: functional, cell-based, Homo sapiens;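 further: cell viability assay read-out, with IC50 given as the concentration that inhibits growth of the cell line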
# Description: SANGER: Inhibition of human HCC2218 cell growth in a cell viability assay.
# HT = assay type: functional, cell-based, Homo sapiens
# Description: SANGER: Inhibition of human HT cell growth in a cell viability assay.
# HT-144 = assay type: functional, cell-based, Homo sapiens
# Description: SANGER: Inhibition of human HT-144 cell growth in a cell viability assay.
# HuTu80 = assay type: functional, cell-based, Homo sapiens, HUTU-80;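 further: growth inhibition of HuTu80 human cells, determined with a cell viability readout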
# Description: SANGER: Inhibition of human HUTU-80 cell growth in a cell viability assay.
# JAR = assay type: functional, cell-based, Homo sapiens;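 further: growth inhibition of human JAR cells determined with a cell viability assay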
# Description: SANGER: Inhibition of human JAR cell growth in a cell viability assay.
# KM12 = assay type: functional, cell-based, Homo sapiens;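 further: KM12 cell growth inhibition, read out with a cell viability assay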
# Description: SANGER: Inhibition of human KM12 cell growth in a cell viability assay.
# LNCaP-Clone-FGC = assay type: functional, cell-based, Homo sapiens
# Description: SANGER: Inhibition of human LNCaP-Clone-FGC cell growth in a cell viability assay.
# NB5 = assay type: functional, cell-based, Homo sapiens;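 further: growth inhibition of NB5 cells, read out as cell viability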
# Description: SANGER: Inhibition of human NB5 cell growth in a cell viability assay.
# NCI-H2126 = assay type: functional, cell-based, Homo sapiens;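 further: growth inhibition of the cancer cell line, determined with a cell viability readout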
# Description: SANGER: Inhibition of human NCI-H2126 cell growth in a cell viability assay.
# NCI-H69 = assay type: functional, cell-based, Homo sapiens;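 further: growth inhibition of the cell line, read out with a cell viability assay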
# Description: SANGER: Inhibition of human NCI-H69 cell growth in a cell viability assay.
# SNU-5 = assay type: functional, cell-based, Homo sapiens;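 further: cell viability readout used to measure growth inhibition in human NCI-SNU-5 cells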
# Description: SANGER: Inhibition of human NCI-SNU-5 cell growth in a cell viability assay.
# QIMR-WIL = assay type: functional, cell-based, Homo sapiens;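 further: growth inhibition of QIMR-WIL cells, read out with a cell viability assay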
# Description: SANGER: Inhibition of human QIMR-WIL cell growth in a cell viability assay.
# RS4-11 = assay type: functional, cell-based, Homo sapiens;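 further: growth inhibition of RS4-11 cells, read out by a cell viability assay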
# Description: SANGER: Inhibition of human RS4-11 cell growth in a cell viability assay.
# RXF 393 = assay type: functional, cell-based, Homo sapiens;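 further: growth inhibition of human RXF 393 cells, read out with a cell viability assay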
# Description: SANGER: Inhibition of human RXF393 cell growth in a cell viability assay.
# Ramos-2G6-4C10 = assay type: functional, cell-based, Homo sapiens;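 further: growth inhibition of the cell line, measured by a cell viability read-out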
# Description: SANGER: Inhibition of human Ramos-2G6-4C10 cell growth in a cell viability assay.
# SCH = assay type: functional, cell-based, Homo sapiens;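 further: growth inhibition of human SCH cells, read out in a cell viability assay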
# Description: SANGER: Inhibition of human SCH cell growth in a cell viability assay.
# SJSA-1 = assay type: functional, cell-based, Homo sapiens;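 further: growth inhibition of human SJSA-1 cells, read out through a cell viability measurement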
# Description: SANGER: Inhibition of human SJSA-1 cell growth in a cell viability assay.
# SK-MEL-2 = assay type: functional, cell-based, Homo sapiens;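 further: growth inhibition of human SK-MEL-2 cells measured with a cell viability assay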
# Description: SANGER: Inhibition of human SK-MEL-2 cell growth in a cell viability assay.
# A498 = assay type: functional, cell-based, Homo sapiens;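 further: growth inhibition of human A498 cells, read out with a cell viability assay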
# Description: SANGER: Inhibition of human A498 cell growth in a cell viability assay.
# AM-38 = assay type: functional, cell-based, Homo sapiens;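 further: growth inhibition of AM-38 cells of human origin, read out by a cell viability assay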
# Description: SANGER: Inhibition of human AM-38 cell growth in a cell viability assay.
# BT-474 = assay type: functional, cell-based, Homo sapiens
# Description: SANGER: Inhibition of human BT-474 cell growth in a cell viability assay.
# Becker = assay type: functional, cell-based, Homo sapiens;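 further: growth inhibition of Becker cells, read out with a cell viability assay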
# Description: SANGER: Inhibition of human Becker cell growth in a cell viability assay.
# TE-10 = assay type: functional, cell-based, Homo sapiens;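 further: growth inhibition of TE-10 cells, measured by a cell viability assay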
# Description: SANGER: Inhibition of human TE-10 cell growth in a cell viability assay.
# TE-6 = assay type: functional, cell-based, Homo sapiens;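 further: growth inhibition of TE-6 cells, read out with a cell viability assay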
# Description: SANGER: Inhibition of human TE-6 cell growth in a cell viability assay.
# TE-9 = assay type: functional, cell-based, Homo sapiens;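 further: cell growth inhibition, measured with a cell viability readout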
# Description: SANGER: Inhibition of human TE-9 cell growth in a cell viability assay.
# U-87 MG = assay type: functional, cell-based, Homo sapiens, U-87MG ATCC;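 further: growth inhibition of the cells measured with a viability assay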
# Description: SANGER: Inhibition of human U-87-MG cell growth in a cell viability assay.
# UACC-257 = assay type: functional, cell-based, Homo sapiens
# Description: SANGER: Inhibition of human UACC-257 cell growth in a cell viability assay.
# EW-1 = assay type: functional, cell-based, Homo sapiens; settings: ew-1;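 further: growth inhibition of the human EW-1 cell line, read out by a cell viability assay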
# Description: SANGER: Inhibition of human EW-1 cell growth in a cell viability assay.
# HEL = assay type: functional, cell-based, Homo sapiens; settings: hel;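 further: growth inhibition of HEL cells, read out with a cell viability assay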
# Description: SANGER: Inhibition of human HEL cell growth in a cell viability assay.
# LB996-RCC = assay type: functional, cell-based, Homo sapiens; settings: lb996-rcc
# Description: SANGER: Inhibition of human LB996-RCC cell growth in a cell viability assay.
# LC-2-ad = assay type: functional, cell-based, Homo sapiens; settings: lc-2-ad;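 further: growth inhibition of human LC-2-ad cells, read out with a cell viability assay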
# Description: SANGER: Inhibition of human LC-2-ad cell growth in a cell viability assay.
# MZ1-PC = assay type: functional, cell-based, Homo sapiens; settings: mz1-pc;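 further: cell viability assay measuring growth inhibition of human MZ1-PC cells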
# Description: SANGER: Inhibition of human MZ1-PC cell growth in a cell viability assay.
# MZ7-mel = assay type: functional, cell-based, Homo sapiens; settings: mz7-mel;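 further: growth inhibition of human MZ7-mel cells, measured by a cell viability assay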
# Description: SANGER: Inhibition of human MZ7-mel cell growth in a cell viability assay.
# NB10 = assay type: functional, cell-based, Homo sapiens; settings: nb10;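 further: growth inhibition of NB10 cells, read out by a cell viability assay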
# Description: SANGER: Inhibition of human NB10 cell growth in a cell viability assay.
# NCI-H1092 = assay type: functional, cell-based, Homo sapiens; settings: nci-h1092;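 further: cell growth inhibition measured with a cell viability assay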
# Description: SANGER: Inhibition of human NCI-H1092 cell growth in a cell viability assay.
# NCI-H226 = assay type: functional, cell-based, Homo sapiens; settings: nci-h226;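 further: cell viability read-out used to gauge growth inhibition of the cells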
# Description: SANGER: Inhibition of human NCI-H226 cell growth in a cell viability assay.
# NCI-H446 = assay type: functional, cell-based, Homo sapiens; settings: nci-h446;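 further: growth inhibition of NCI-H446 cells determined by a cell viability assay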
# Description: SANGER: Inhibition of human NCI-H446 cell growth in a cell viability assay.
# NH-12 = assay type: functional, cell-based, Homo sapiens; settings: nh-12;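 further: growth inhibition of NH-12 cells, read out with a cell viability assay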
# Description: SANGER: Inhibition of human NH-12 cell growth in a cell viability assay.
# SK-LMS-1 = assay type: functional, cell-based, Homo sapiens; settings: sk-lms-1;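 further: growth inhibition of human SK-LMS-1 cells, read out with a cell viability assay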
# Description: SANGER: Inhibition of human SK-LMS-1 cell growth in a cell viability assay.
# SK-PN-DW = assay type: functional, cell-based, Homo sapiens; settings: sk-pn-dw;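 further: growth inhibition measured with a viability assay on these cells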
# Description: SANGER: Inhibition of human SK-PN-DW cell growth in a cell viability assay.
# SW684 = assay type: functional, cell-based, Homo sapiens; settings: sw684;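 further: growth inhibition of human SW684 cells, measured by a cell viability assay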
# Description: SANGER: Inhibition of human SW684 cell growth in a cell viability assay.
# ACN = assay type: functional, cell-based, Homo sapiens; settings: acn;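 further: growth inhibition of the human ACN cell line, read out via cell viability testing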
# Description: SANGER: Inhibition of human ACN cell growth in a cell viability assay.
# C8166 = assay type: functional, cell-based, Homo sapiens; settings: c8166;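 further: growth inhibition of human C8166 cells measured by a cell viability assay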
# Description: SANGER: Inhibition of human C8166 cell growth in a cell viability assay.
compound,measurement,setting,value
CN(C)C(=N)NC(=N)N [METFORMIN],pIC50,"Calu-6; Homo sapiens, Calu-6",1.82
same,pIC50,D-247MG,< 1.70
same,pIC50,"D-263MG; Homo sapiens, D-263MG",< 1.70
same,pIC50,"DB; Homo sapiens, DB",< 1.70
same,pIC50,"DMS-79; Homo sapiens, DMS-79",2.22
same,pIC50,"DU-4475; Homo sapiens, DU-4475",2.42
same,pIC50,"HCC2218; Homo sapiens, HCC2218",3.15
same,pIC50,"HT; Homo sapiens, HT",1.93
same,pIC50,"HT-144; Homo sapiens, HT-144",< 1.70
same,pIC50,"HuTu80; Homo sapiens, HuTu80",< 1.70
same,pIC50,"JAR; Homo sapiens, JAR",2.04
same,pIC50,"KM12; Homo sapiens, KM12",< 1.70
same,pIC50,"LNCaP-Clone-FGC; Homo sapiens, LNCaP-Clone-FGC",2.28
same,pIC50,"NB5; Homo sapiens, NB5",< 1.70
same,pIC50,"NCI-H2126; Homo sapiens, NCI-H2126",< 1.70
same,pIC50,"NCI-H69; Homo sapiens, NCI-H69",2.07
same,pIC50,"SNU-5; Homo sapiens, SNU-5",2.43
same,pIC50,"QIMR-WIL; Homo sapiens, QIMR-WIL",< 1.70
same,pIC50,"RS4-11; Homo sapiens, RS4-11",< 1.70
same,pIC50,"RXF 393; Homo sapiens, RXF 393",< 1.70
same,pIC50,"Ramos-2G6-4C10; Homo sapiens, Ramos-2G6-4C10",< 1.70
same,pIC50,"SCH; Homo sapiens, SCH",< 1.70
same,pIC50,"SJSA-1; Homo sapiens, SJSA-1",< 1.70
same,pIC50,"SK-MEL-2; Homo sapiens, SK-MEL-2",< 1.70
same,pIC50,"A498; Homo sapiens, A498",< 1.70
same,pIC50,"AM-38; Homo sapiens, AM-38",< 1.70
same,pIC50,"BT-474; Homo sapiens, BT-474",< 1.70
same,pIC50,"Becker; Homo sapiens, Becker",< 1.70
same,pIC50,"TE-10; Homo sapiens, TE-10",< 1.70
same,pIC50,"TE-6; Homo sapiens, TE-6",1.85
same,pIC50,"TE-9; Homo sapiens, TE-9",1.98
same,pIC50,"U-87 MG; Homo sapiens, U-87 MG",< 1.70
same,pIC50,"UACC-257; Homo sapiens, UACC-257",1.86
BLEOMYCIN,pIC50,Calu-6; calu-6,5.12
same,pIC50,D-263MG; d-263mg,3.85
same,pIC50,DB; db,5.29
same,pIC50,DMS-79; dms-79,3.49
same,pIC50,DU-4475; du-4475,5.90
same,pIC50,EW-1,5.74
same,pIC50,HCC2218; hcc2218,4.38
same,pIC50,HEL,4.97
same,pIC50,HT; ht,5.26
same,pIC50,HT-144; ht-144,7.26
same,pIC50,HuTu80; hutu-80,9.87
same,pIC50,JAR; jar,3.69
same,pIC50,KM12; km12,5.04
same,pIC50,LB996-RCC,6.76
same,pIC50,LC-2-ad,7.09
same,pIC50,LNCaP-Clone-FGC; lncap-clone-fgc,4.74
same,pIC50,MZ1-PC,6.65
same,pIC50,MZ7-mel,6.88
same,pIC50,NB10,4.86
same,pIC50,NB5; nb5,5.17
same,pIC50,NCI-H1092,3.80
same,pIC50,NCI-H2126; nci-h2126,3.45
same,pIC50,NCI-H226,4.11
same,pIC50,NCI-H446,4.72
same,pIC50,NCI-H69; nci-h69,3.98
same,pIC50,SNU-5; snu-5,6.19
same,pIC50,NH-12,5.66
same,pIC50,QIMR-WIL; qimr-wil,6.20
same,pIC50,RS4-11; rs4-11,8.78
same,pIC50,RXF 393; rxf 393,3.76
same,pIC50,Ramos-2G6-4C10; ramos-2g6-4c10,5.01
same,pIC50,SCH; sch,3.35
same,pIC50,SJSA-1; sjsa-1,5.66
same,pIC50,SK-LMS-1,5.58
same,pIC50,SK-MEL-2; sk-mel-2,5.07
same,pIC50,SK-PN-DW,5.84
same,pIC50,SW684,2.41
same,pIC50,A498; a498,2.99
same,pIC50,ACN,6.09
same,pIC50,AM-38; am-38,5.31
same,pIC50,BT-474; bt-474,2.68
same,pIC50,Becker; becker,4.57
same,pIC50,C8166,5.11
same,pIC50,TE-10; te-10,6.11
same,pIC50,TE-6; te-6,4.91
same,pIC50,TE-9; te-9,4.47
same,pIC50,U-87 MG; u-87mg atcc,4.96
same,pIC50,UACC-257; uacc-257,3.63
